# Laboratory results published in US20220273658A1, “SMALL MOLECULE LIVER X RECEPTOR MODULATORS AND USES THEREOF” (University of Houston System, priority 2019, published 2022).
# Key:
# PDAC cells [1] = assay: cell viability with glutaminase inhibitor BPTES and 1E5; format: cell-based, human; conditions: BPTES alone
# From the text: TCA cycle intermediates act as anaplerotic substrate for gluconeogenesis and lipogenesis. […] GOT2 converts glutamine-derived glutamate to alpha-KG. During this process oxaloacetate is converted to aspartate which is required to maintain redox homeostasis. Studies have shown that inhibition of GOT2 in PDAC promotes senescence.
# [2] = pre-clinical testing; cited from earlier work
# BxPC-3-luc2 cells = assay: orthotopic xenograft mouse model of pancreatic cancer; format: in vivo
# From the text: Data from studies using cultured cancer cell lines indicate that LXR agonists have anti-proliferative effects on PDAC cells by disrupting cell cycle progression and expression of key regulatory proteins and growth pathways. To determine the effects of ligands in vivo using a live imaging system, BxPC-3 cells engineered with […] firefly luciferase gene (BxPC-3-luc2) were obtained from a commercial source (Perkin Elmer) and then validated for luciferase expression and response to GW3965 treatment in culture. […] NCr athymic nude mice (n=5 per treatment group) were orthotopically injected with BxPC-3-luc2 cells and then gavaged daily with GW3965 dissolved in 0.5% methylcellulose or vehicle only. Animals were anesthetized, injected with luciferin, and imaged weekly to monitor and quantify tumor growth. […] Experiments were terminated after two weeks due to the morbidity associated with the tumor burden in test animals. […] Statistically significant differences in additive effects as compared to single compound treatments are denoted with asterisks.
# [3] = test system: myeloid-derived suppressor cells (MDSCs); conditions: in vivo; cited from earlier work
# [4] = test system: BxPC-3, Mia-PaCa-2, and PANC-1; assay: cell proliferation, live cells quantified by trypan blue exclusion; format: cell-based, human; conditions: increasing GW3965 concentrations; all three cell lines
# Method: (§1) To determine the effects of LXR ligands on PDAC cell proliferation, cells were treated with synthetic LXR agonist GW3965 and live cells were quantified using trypan blue exclusion assays. […] FIGS. 8A, 8B, and 8C show dose-dependent decreases in cell proliferation in BxPC-3, Mia-PaCa-2, and PANC-1, respectively upon treatment with increasing GW3965 concentrations. […] Clonogenic assays were also employed to evaluate the effects of long-term LXR ligand treatment on cell proliferation and colony formation. […] These findings indicate that LXRs are involved in PDAC cell proliferation and targeting LXRs with ligands perturb their normal functions in cell proliferation.
# PDAC cell lines [5] = assay: tetrazolium salt reduction (WST) assay in PDAC cell lines; format: cell-based, human; conditions: GW3965, WST assay
# Method: as §1
# (§2) The initial identification and subsequent characterization of the two novel LXR ligands and their derivative compounds was carried out in screens in three human pancreatic cancer cell and one non-transformed human pancreatic epithelial cell line in three or more replicate experiments for each cell line using the WST tetrazolium salt reduction assays.
# [6] = test system: LXR target genes SREBF1c, ABCA1, and ABCG1; assay: expression of LXR target genes in pancreatic cancer cell lines; format: cell-based, human; conditions: for expression of LXR target genes: three pancreatic cancer cell lines
# From the text: To characterize the activity of the newly discovered ligands, the expression of LXR target genes SREBF1c, ABCA1, and ABCG1 was examined following treatment with vehicle, synthetic agonist GW3965, and Compounds 1E5 and 3A4. […] Basal expression of SREBF1c, the canonical LXR target gene involved in the regulation of glucose and lipid metabolism, was disrupted by the addition of novel LXR ligands, whereas their expression was induced following treatment with synthetic agonist GW3965 in all three pancreatic cancer cell lines tested, whereas the effects on ABCA1 and ABCG1 varied between the two novel ligands and across the cell lines.
# (§3) To elucidate mechanisms of inverse agonism by the novel ligands, TR-FRET experiments were conducted to determine the effects of 1E5 and 3A4 on the recruitment of NR co-activators and co-repressors. […] In addition to their functions as inverse agonists, extended treatments with 1E5 and 3A4 also destabilized or decreased LXR proteins.
# PDAC cell lines [7] = assay: clonogenic assay, colony formation; format: cell-based, human; conditions: long-term treatment, each cell line
# Method: as §1
# PDAC cell lines [8] = assay: MTS assay of overall cell metabolic rate; format: cell-based, human; conditions: increasing concentrations of GW3965
# LXR-LBD = assay: differential scanning fluorimetry; format: binding
# From the text: (§4) The synthesis and characterization of KD-01-39, a derivative of 3A4, have not been described previously.
# [9] = test system: LXR ligand-binding domain; assay: TR-FRET assay of co-activator and co-repressor peptide recruitment; format: biochemical
# Method: as §3, §4
# PDAC cells [10] = assay: treatment of PDAC cells with KD-01-39 (FIG. 32); format: cell-based, human; conditions: all cancer lines tested
# From the text: as §4
# HPNE cells = assay: growth of non-transformed pancreatic epithelial cells (WST screen; FIG. 32D); format: cell-based, human; conditions: FIG. 32(D)
# Method: as §2, §4
# KPC tumor cells = assay: growth of KPC tumor cells from mouse model of PDAC; format: cell-based
# From the text: The effects of the ligands and derivatives on the growth of PDAC cells were further validated by cell counting and clonogenic assays.
# MDSC and CD8+ T-cells = conditions: in vivo; cited from earlier work
# PDAC = PDAC patients; cited from earlier work
structure (smiles),measurement,setting,value
"O=C(Cc1ccccc1)Nc1nnc(CCSCCc2nnc(NC(=O)Cc3ccccc3)s2)s1 [BPTES, reference compound]",pancreatic cancer cell viability,PDAC cells [1],reduced pancreatic cancer cell viability
O=S(=O)(c1ccccc1)N(CC(F)(F)F)c1ccc(C(O)(C(F)(F)F)C(F)(F)F)cc1 [Compound T0901317],circulating and liver triglyceride levels,[2],increased circulating and liver triglyceride levels
O=C(O)Cc1cccc(OCCCN(Cc2cccc(C(F)(F)F)c2Cl)CC(c2ccccc2)c2ccccc2)c1 [GW3965],tumor growth (luciferase signal),"BxPC-3-luc2 cells; 40 mg/kg and 80 mg/kg, daily gavage, one and two weeks",reduced tumor growth
same,"tumor size, post-mortem examination",BxPC-3-luc2 cells; control vs treated animals,significant differences in tumor size
same,bioavailability following ingestion,BxPC-3-luc2 cells; daily gavage,confirmed the bioavailability
same,toxicity following ingestion,"BxPC-3-luc2 cells; mouse, in vivo",low toxicity
same,anti-tumor effects of PD-1 inhibitor immunotherapy,[3],enhanced the anti-tumor effects of PD-1 inhibitor immunotherapy
same,recruitment and apoptosis of immunosuppressive MDSCs,[3],blocked the recruitment and increased apoptosis
same,cell proliferation,[4],significantly inhibited
same,growth of PDAC cell lines,PDAC cell lines [5],suppressed the growth of PDAC cell lines in a dose-dependent manner
same,basal expression of SREBF1c,[6]; all three pancreatic cancer cell lines,induced
same,expression of LXR target genes,[6],increased target gene expression
same,colony formation,PDAC cell lines [7],strongly inhibited colony formation
same,overall metabolism (MTS),PDAC cell lines [8],dose-dependent drop in overall metabolism
same,circulating and liver triglyceride levels,[2],increased circulating and liver triglyceride levels
COc1cc(OC)cc(C(=O)N2CCN(c3ccccc3Br)CC2)c1 [KD-01-39],LXR-LBD structure and dye dissociation with increasing temperature,LXR-LBD,disrupted the LBD structure
same,expression of LXR target genes,[6],decreased the expression of LXR target genes
same,co-activator peptide binding to LXR ligand-binding domain,[9]; co-activator (D22) peptide,did not affect recruitment of co-activator peptides
same,binding of NCOR and SMRT co-repressor peptides,[9]; co-repressor (NCOR and SMRT-ID2) peptides,enhanced recruitment of NCOR and SMRT co-repressor peptides in a dosage dependent manner
same,efficacy against cancer lines compared with 3A4,PDAC cells [10],same or similar efficacy as 3A4
same,effect on non-cancerous pancreatic HPNE cells,HPNE cells,minimal effect
same,growth of KPC tumor cells,KPC tumor cells,inhibition of pancreatic cancer cells
C[C@H](CCOc1cccc(CC(=O)O)c1)N(Cc1cccc(C(F)(F)F)c1Cl)CC(c1ccccc1)c1ccccc1 [RGX-104],anti-tumor effects of PD-1 inhibitor immunotherapy,[3],enhanced the anti-tumor effects of PD-1 inhibitor immunotherapy
same,recruitment and apoptosis of immunosuppressive MDSCs,[3],blocked the recruitment and increased apoptosis
Cc1cc(C)c(S(=O)(=O)N(CCc2cccc(Br)c2)Cc2ccc(-c3cccc(S(C)(=O)=O)c3)cc2)c(C)c1 [SR9243],MDSC recruitment to tumors,MDSC and CD8+ T-cells,decreased MDSC recruitment to tumors
same,expansion and recruitment of tumor-killing CD8+ T-cells,MDSC and CD8+ T-cells,increased the expansion and recruitment
Nc1ccn([C@@H]2O[C@H](CO)[C@@H](O)C2(F)F)c(=O)n1 [gemcitabine],improvement of median survival,PDAC,approximately two weeks
